Results taken from publication PMC6402343 (ACS chemical biology, 2019).

Tests used:
RhlR [1] = target: T1, RhlR (Pseudomonas aeruginosa, UniProt P54292); experiment: P. aeruginosa PAO-JP2 RhlR reporter; assay type: cell-based; conditions: for EC50 / Max. RhlR Activation: P. aeruginosa RhlR reporter strain; for EC50: dose-response; for Max. RhlR Activation: efficacy
RhlR [2] = target: T1, RhlR; experiment: E. coli RhlR reporter; assay type: cell-based; conditions: E. coli RhlR reporter strain; for EC50: dose-response; for Max. RhlR Activation: efficacy

T1 sequence (P54292 whole entry): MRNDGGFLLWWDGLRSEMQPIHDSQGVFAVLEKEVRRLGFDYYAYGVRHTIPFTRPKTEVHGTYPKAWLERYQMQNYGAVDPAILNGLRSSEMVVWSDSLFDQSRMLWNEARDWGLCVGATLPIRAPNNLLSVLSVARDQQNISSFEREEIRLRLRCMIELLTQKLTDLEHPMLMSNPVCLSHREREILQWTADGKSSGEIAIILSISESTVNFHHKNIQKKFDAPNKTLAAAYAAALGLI

Compound	EC50 (RhlR [1]) [nM]	Max. RhlR Activation (RhlR [1]) [%]	EC50 (RhlR [2]) [nM]	Max. RhlR Activation (RhlR [2]) [%]	fold lower potency in P. aeruginosa relative to E. coli (RhlR [1]; ratio of EC50 values in the two RhlR reporters)
CCCC(=O)N[C@H]1CCOC1=O [BHL, N-butyryl HL]	8080	100	8950	100	–
CC(C)CC(=O)NC1CCSC1=O (centres unmarked) [Compound 37, isovaryl homocysteine thiolactone]	2580	91	463	93	~ 5 fold
O=C(NC1CCOC1=O)C1CCC1 (centres unmarked) [Compound 17, cyclobutyl HL]	1410	96	1780	100	–
CC(C)CC(=O)N[C@H]1CCOC1=O [Compound 7, isovaleryl HL]	1420	94	1020	110	–
